In patent US4937346A, “Phenyl-azacykloalkanes” (Carlsson; Per Arvid Emil, priority 1979, dated 1990):
“Also recorded” adds a separate entry of the source.

Tests used:
[1] = tested on: presynaptic dopaminergic receptors and postsynaptic dopaminergic receptors; assay: Antagonism of the locomotor stimulating activity of (+)-amphetamine; conditions: in vivo
Source text: This effect is probably the result of the simultaneous stimulation of presynaptic dopaminergic receptors and partial blockade of postsynaptic dopaminergic receptors. All the major antipsychotic agents in current use are potent amphetamine antagonists, and such activity is considered to be predictive of antipsychotic action.

[2] = tested on: postsynaptic dopaminergic receptor; assay: Antagonism of apomorphine-induced locomotor stimulation; assay type: in vivo, rat
Protocol: 3. Evidence for postsynaptic dopminergic receptor antagonist activity of (-)-3-PPP.
The locomotor stimulating action of the dopamine receptor aqonist apomorphine is antagonized by (-)-3-PPP. […] Thus the postsynaptic receptor antagonist activity requires a larger dose than the presynaptic receptor agonist activity, which is evident after doses down to 0.25 mg/kg.
Further, (-)-3-PPP and racemic 3-PPP have been compared regarding antagonism of apomorphine-induced locomotor stimulation. Either form of 3-PPP was injected subcutaneously in a dose of 8 mg/kg 20 min and apomorphine in a dose of 1 mg/kg subcutaneously 5 min before placing the rats in the Motron for 30 min. Shown are the counts per 30 min., means± s.e.m. and number of experiments (n).

[3] = tested on: dopaminergic receptors (presynaptic and postsynaptic); assay: Dopaminergic receptor profile of 3-PPP and its enantiomers (summary of tests); assay type: in vivo; conditions: summary of enantiomer tests
Source text: The two enantiomers of 3-PPP have now been tested separately.

[4] = tested on: postsynaptic dopaminergic receptors; assay: Locomotor activity in reserpine-treated rats, enantiomers of 3-PPP; assay type: in vivo, rat; conditions: reserpine-treated rats; (+)-form 0.25 to 64 mg/kg
Source text: 2. Evidence for postsynaptic dopaminergic receptor agonist activity of (+)-3-PPP.

[5] = tested on: presynaptic dopaminergic receptor (autoreceptor); assay: Spontaneous exploratory motor activity of rats, enantiomers of 3-PPP; assay type: in vivo, rat
Protocol: 1. Evidence for presynaptic dopaminergic receptor (autoreceptor) agonist activity of both enantiomers of 3-PPP. Both enantiomers of 3-PPP cause a dose-dependent decrease in spontaneous exploratory motor activity of rats. […] However, the (+)-enantiomer causes a decrease only after doses between 0.25 and 4 mg/kg s.c.

[6] = tested on: dopa formation; assay: Dopa formation and dopamine metabolite levels in rats not pretreated with GBL or reserpine; assay type: in vivo, rat

CCCN1CCCC(c2cccc(O)c2)C1.Cl (single isomer, unassigned; (-)) [(-)-3-PPP, (-)-3-(3-Hydroxyphenyl)-N-n-propylpiperidine hydrochloride]
antagonism of (+)-amphetamine locomotor stimulating activity [1]: striking antagonistic action | antagonism of apomorphine locomotor stimulation ([2]; 2 mg/kg): not after 2 mg/kg | counts per 30 min., with apomorphine ([2]; 8 mg/kg s.c. + apomorphine 1 mg/kg s.c., means ± s.e.m., n=5): 276 ± 50 counts per 30 min. | antagonism of apomorphine locomotor stimulation ([2]; 8 mg/kg s.c., hydrochloride): clearcut; also recorded: antagonized said stimulation | activity on presynaptic and postsynaptic dopaminergic receptors [3]: capable of activating the presynaptic dopaminergic receptors (autoreceptors) but concomitantly reduced the sensitivity of the postsynaptic dopaminergic receptors to dopaminergic agonists | stimulation of locomotor activity [4]: only a very weak stimulation of motor activity | effect on locomotor activity over dose range ([5]; doses between 0.053 and 64 mg/kg s.c.): a decrease after all these doses, with no reversal of the effect after larger doses | doses down to which presynaptic receptor agonist activity is evident ([5]; presynaptic receptor agonist activity): 0.25 mg/kg | decrease of locomotor activity to % of control ([5]; s.c., first 30 min): 30-40 % of control | dopa formation, limbic region ([6]; 0.053 to 64 mg/kg, no pretreatment, limbic region): no change | dopa formation, striatum ([6]; 0.053 to 64 mg/kg, no pretreatment, striatum): increase | levels of 3,4-dihydroxyphenyl acetic acid and homovanillic acid ([6]; matched to the changes in dopa formation): corresponding changes in the levels of the dopamine metabolites | dopa formation and dopamine metabolite levels in rat striatum ([6]; rat striatum): stimulate dopa formation and to raise dopaminemetabolite levels in rat striatum
